Results from US20220289753A1, “SHP2 INHIBITORS” (IRBM S.P.A., priority 2019, published 2022).

What was measured:
[1] = target: T1, SHP-2 enzyme (Met1-Leu525) (Homo sapiens, UniProt Q06124); experiment: SHP2 inhibition enzymatic assay (DiFMUP substrate, IRS1 peptide activation); type: biochemical; conditions: SHP2 wt; activated by 500 nM IRS1 peptide; 75 μM DiFMUP substrate
T1 construct: synthetized by Origene, Met1-Leu525, cat #TP750155; purchased Origene TP750155
T1 sequence (Q06124 1-525): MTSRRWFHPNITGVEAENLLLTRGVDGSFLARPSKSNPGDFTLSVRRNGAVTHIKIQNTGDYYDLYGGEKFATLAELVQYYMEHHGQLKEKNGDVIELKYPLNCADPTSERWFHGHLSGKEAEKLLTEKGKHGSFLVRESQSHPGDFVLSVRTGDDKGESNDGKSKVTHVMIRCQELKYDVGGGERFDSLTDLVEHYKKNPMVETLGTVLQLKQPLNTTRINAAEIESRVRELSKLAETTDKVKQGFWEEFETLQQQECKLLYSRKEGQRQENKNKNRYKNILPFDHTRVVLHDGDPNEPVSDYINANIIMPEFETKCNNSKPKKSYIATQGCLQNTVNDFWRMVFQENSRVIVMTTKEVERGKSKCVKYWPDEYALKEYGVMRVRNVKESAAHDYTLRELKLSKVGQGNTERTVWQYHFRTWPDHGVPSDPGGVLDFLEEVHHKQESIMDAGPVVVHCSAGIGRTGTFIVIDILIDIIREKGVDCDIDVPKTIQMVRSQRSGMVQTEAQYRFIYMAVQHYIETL
Procedure, shortened: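 SHP-2 (Met1-Leu525, 0.5 nM final) preincubated 30 min with compounds and IRS1 activating peptide in HEPES pH 7.2 buffer with NaCl, KCl, EDTA, tween-20, 5 mM DTT. DiFMUP then added for 30 min at room temperature and fluorescence read. IC50 from four-parameter logistic fit of % inhibition.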

[2] = system: ERK phosphorylation in KYSE-520 cells; experiment: Phospho-ERK cellular assay (Advanced phospho-ERK1/2 (Thr202/Tyr204) TR-FRET kit); type: cell-based; conditions: Homo sapiens, KYSE-520, 2 h, KYSE-520 cells, 2 h at 37° C., TR-FRET; read-out: pERK IC50
Procedure, shortened: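 IC50 values are inflection points of four-parameter logistic fits of percent activity against compound dilution. Compound exposure lasted 2 h at 37° C in KYSE-520 cells. Lysates were probed overnight with Eu-cryptate/d2 antibodies to ERK1/2 phosphorylated at Thr202/Tyr204, so reduced TR-FRET indicates SHP2 inhibition.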

| IC50 [1] [nM] | IC50 [2] [nM] | SMILES |
| --- | --- | --- |
| < 500 | < 1000 | N[C@@H]1c2ccccc2CC12CCN(c1nc3nc(Sc4ccnc5cccc(F)c45)cnc3[nH]1)CC2 [Example 218, (S)-1′-(5-((5-fluoroquinolin-4-yl)thio)-1H-imidazo[4,5-b]pyrazin-2-yl)-1,3-dihydrospiro[indene-2,4′-piperidin]-1-amine] |
| < 500 | < 1000 | Nc1nccc(Sc2cnc3[nH]c(N4CCC5(CC4)Cc4ccc(Br)cc4[C@H]5N)nc3n2)c1Cl [Example 219, (S)-1′-(5-((2-amino-3-chloropyridin-4-yl)thio)-1H-imidazo[4,5-b]pyrazin-2-yl)-6-bromo-1,3-dihydrospiro[indene-2,4′-piperidin]-1-amine] |
| < 500 | 1000 to 5000 | COc1ccc2nccc(Sc3cnc4[nH]c(N5CCC6(CC5)Cc5ccccc5[C@H]6N)nc4n3)c2n1 [Example 220, (S)-1′-(5-((6-methoxy-1,5-naphthyridin-4-yl)thio)-1H-imidazo[4,5-b]pyrazin-2-yl)-1,3-dihydrospiro[indene-2,4′-piperidin]-1-amine] |
| 500 to 3000 | 1000 to 5000 | N[C@@H]1c2ccccc2CC12CCN(c1nc3nc(Sc4cnc5ccccn5c4=O)cnc3[nH]1)CC2 [Example 221, (S)-3-((2-(1-amino-1,3-dihydrospiro[indene-2,4′-piperidin]-1′-yl)-1H-imidazo[4,5-b]pyrazin-5-yl)thio)-4H-pyrido[1,2-a]pyrimidin-4-one] |
| < 500 | > 5000 | Nc1nccc(Sc2cnc3[nH]c(N4CCC5(CC4)Cc4ccccc4[C@H]5N)nc3n2)c1F [Example 222, (S)-1′-(5-((2-amino-3-fluoropyridin-4-yl)thio)-1H-imidazo[4,5-b]pyrazin-2-yl)-1,3-dihydrospiro[indene-2,4′-piperidin]-1-amine] |
| < 500 | > 5000 | Nc1nccc(Sc2cnc3[nH]c(N4CCC5(CC4)Cc4ccc(N6CCOCC6)cc4[C@H]5N)nc3n2)c1Cl [Example 223, (S)-1′-(5-((2-amino-3-chloropyridin-4-yl)thio)-1H-imidazo[4,5-b]pyrazin-2-yl)-6-morpholino-1,3-dihydrospiro[indene-2,4′-piperidin]-1-amine] |
| < 500 | > 5000 | CNC(=O)c1ncccc1Sc1cnc2[nH]c(N3CCC4(CC3)Cc3ccccc3[C@H]4N)nc2n1 [Example 224, (S)-3-((2-(1-amino-1,3-dihydrospiro[indene-2,4′-piperidin]-1′-yl)-1H-imidazo[4,5-b]pyrazin-5-yl)thio)-N-methylpicolinamide] |
| < 500 | > 5000 | N[C@@H]1c2ccccc2CC12CCN(c1nc3nc(Sc4cccnc4N4CCCC4)cnc3[nH]1)CC2 [Example 225, (S)-1′-(5-((2-(pyrrolidin-1-yl)pyridin-3-yl)thio)-1H-imidazo[4,5-b]pyrazin-2-yl)-1,3-dihydrospiro[indene-2,4′-piperidin]-1-amine] |
| < 500 | < 1000 | N[C@@H]1c2ccccc2CC12CCN(c1nc3nc(Sc4ccncc4OC(F)(F)F)cnc3[nH]1)CC2 [Example 226, (S)-1′-(5-((3-(trifluoromethoxy)pyridin-4-yl)thio)-1H-imidazo[4,5-b]pyrazin-2-yl)-1,3-dihydrospiro[indene-2,4′-piperidin]-1-amine] |
| < 500 | > 5000 | Cc1nc(COc2cnccc2Sc2cnc3[nH]c(N4CCC5(CC4)Cc4ccccc4[C@H]5N)nc3n2)co1 [Example 227, (S)-1′-(5-((3-((2-methyloxazol-4-yl)methoxy)pyridin-4-yl)thio)-1H-imidazo[4,5-b]pyrazin-2-yl)-1,3-dihydrospiro[indene-2,4′-piperidin]-1-amine] |
| < 500 | > 5000 | COc1nccc(Sc2cnc3[nH]c(N4CCC5(CC4)Cc4ccc(Br)cc4[C@H]5N)nc3n2)c1Cl [Example 228, (S)-6-bromo-1′-(5-((3-chloro-2-methoxypyridin-4-yl)thio)-1H-imidazo[4,5-b]pyrazin-2-yl)-1,3-dihydrospiro[indene-2,4′-piperidin]-1-amine] |
| < 500 | > 5000 | Nc1nccc(Sc2cnc3[nH]c(N4CCC5(CC4)Cc4ncc(F)cc4[C@@H]5N)nc3n2)c1Cl [Example 229, (R)-1′-(5-((2-amino-3-chloropyridin-4-yl)thio)-1H-imidazo[4,5-b]pyrazin-2-yl)-3-fluoro-5,7-dihydrospiro[cyclopenta[b]pyridine-6,4′-piperidin]-5-amine] |
| < 500 | 1000 to 5000 | Nc1nccc(Sc2cnc3[nH]c(N4CCC5(CC4)Cc4ncc(F)cc4[C@H]5N)nc3n2)c1Cl [Example 230, (S)-1′-(5-((2-amino-3-chloropyridin-4-yl)thio)-1H-imidazo[4,5-b]pyrazin-2-yl)-3-fluoro-5,7-dihydrospiro[cyclopenta[b]pyridine-6,4′-piperidin]-5-amine] |
| < 500 | < 1000 | COc1ncccc1Sc1cnc2[nH]c(N3CCC4(CC3)Cc3ccc(Br)cc3[C@H]4N)nc2n1 [Example 231, (S)-6-bromo-1′-(5-((2-methoxypyridin-3-yl)thio)-1H-imidazo[4,5-b]pyrazin-2-yl)-1,3-dihydrospiro[indene-2,4′-piperidin]-1-amine] |
| < 500 | < 1000 | N[C@@H]1c2ccccc2CC12CCN(c1nc3nc(Sc4ccnc5[nH]ccc45)cnc3[nH]1)CC2 [Example 232, (S)-1′-(5-((1H-pyrrolo[2,3-b]pyridin-4-yl)thio)-1H-imidazo[4,5-b]pyrazin-2-yl)-1,3-dihydrospiro[indene-2,4′-piperidin]-1-amine] |
| < 500 | < 1000 | Cn1cc2c(n1)CC1(CCN(c3nc4nc(Sc5ccnc(N)c5Cl)cnc4[nH]3)CC1)C2N (stereo not shown) [Example 233, 1′-(5-((2-amino-3-chloropyridin-4-yl)thio)-1H-imidazo[4,5-b]pyrazin-2-yl)-2-methyl-2,6-dihydro-4H-spiro[cyclopenta[c]pyrazole-5,4′-piperidin]-4-amine] |
| < 500 | < 1000 | N[C@@H]1c2ccccc2CC12CCN(c1nc3nc(Sc4ccn[nH]c4=O)cnc3[nH]1)CC2 [Example 234, (S)-4-((2-(1-amino-1,3-dihydrospiro[indene-2,4′-piperidin]-1′-yl)-1H-imidazo[4,5-b]pyrazin-5-yl)thio)pyridazin-3(2H)-one] |
| < 500 | 1000 to 5000 | N[C@@H]1c2ccccc2CC12CCN(c1nc3nc(Sc4cccnc4OCc4ncco4)cnc3[nH]1)CC2 [Example 235, (S)-1′-(5-((2-(oxazol-2-ylmethoxy)pyridin-3-yl)thio)-1H-imidazo[4,5-b]pyrazin-2-yl)-1,3-dihydrospiro[indene-2,4′-piperidin]-1-amine] |
| 500 to 3000 | > 5000 | COc1nnccc1Sc1cnc2[nH]c(N3CCC4(CC3)Cc3ccccc3[C@H]4N)nc2n1 [Example 236, (S)-1′-(5-((3-methoxypyridazin-4-yl)thio)-1H-imidazo[4,5-b]pyrazin-2-yl)-1,3-dihydrospiro[indene-2,4′-piperidin]-1-amine] |
| < 500 | > 5000 | COc1ccncc1Sc1cnc2[nH]c(N3CCC4(CC3)Cc3ccccc3[C@H]4N)nc2n1 [Example 237, (S)-1′-(5-((4-methoxypyridin-3-yl)thio)-1H-imidazo[4,5-b]pyrazin-2-yl)-1,3-dihydrospiro[indene-2,4′-piperidin]-1-amine] |
